According to patent US7989463B2, “Biccyclic compounds as GATA modulators” (Dr. Reddy's Laboratories Limited, priority 2008, dated 2011):

Columns and labels:
[1] = test system: GATA1; experiment: GATA Assay: GATA Translucent Reporter Vector luciferase assay in transfected HepG2 cells; assay type: cell-based, Human; conditions: luciferase normalized to total protein
Method: Human HepG2 (ATCC) cells were grown in Eagle's Minimum Essential Media (MEM) containing 10% heat inactivated Fetal Bovine Serum (FBS) (Invitrogen) and 5 mL Penicillin-Streptomycin (Invitrogen) in T75 flasks (Corning) in a 37° C./5% CO2 tissue culture incubator (Thermo Electron Corporation) prior to the study. 96-well plates (Corning) were seeded in MEM containing 10% FBS to yield ˜50% confluency. The following day, cells were transfected using FuGENE 6 transfection reagent (Roche) and […] GATA Translucent Reporter Vector (Panomics) according the manufacturer's (Roche) protocol and incubated for about 10-19 h. The next day, the cells were treated with equal volumes of vehicle, dimethyl sulfoxide (DMSO) (Hybri-Max Sterile Filtered Sigma Aldrich) or compounds of formula (I) (in DMSO) diluted in MEM containing 1% FBS. The treated cells were incubated about 8-19 h. The next day the treatment media was removed and the cells were lysed and assayed for luciferase activity using the luciferase assay system (Promega) and using the Envision plate reader (Perkin Elmer). The lysates were also used to measure total protein content with the MicroBCA protein assay kit (Pierce) using the Multiskan Ascent plate reader at 570 nm. Luciferase values were normalized to total protein and fold induction was calculated.
Compounds that show an increase of ≧40% in luciferase levels at ≦20 μm concentration were considered as GATA activators.

Compound | melting point [°C] | GATA1 Activation (Fold Change Vs Control) ([1]; 5μ compound) | GATA1 Activation (Fold Change Vs Control) ([1]; 10μ compound)
O=C(O)C1(c2ccc(Nc3nc(C4CCCC4)nc4c3CCC4)cc2)CCCC1 [Example 1, 1-[4-(2-cyclopentyl-6,7-dihydro-5H-cyclopentapyrimidin-4-ylamino)-phenyl]-cyclopentanecarboxylic acid] | 321 to 325 |  | 
O=C(O)C1(c2ccc(Nc3nc(N4CCCC4)nc4c3CCC4)cc2)CCC1 [Example 6, 1-[4-(2-pyrrolidin-1-yl-6,7-dihydro-5H-cyclopentapyrimidin-4-ylamino)-phenyl]-cyclobutanecarboxylic acid] | 245 to 247 |  | 
CC(=O)c1ccc(-c2nc3c(c(Nc4ccc(C5(C(=O)O)CCC5)cc4)n2)CCC3)cc1 [Example 9, 1-{4-[2-(4-acetyl-phenyl)-6,7-dihydro-5H-cyclopentapyrimidin-4-ylamino]-phenyl}-cyclobutanecarboxylic acid] |  | 2.90 | 3.50
O=C(O)C1(c2ccc(Nc3nc(N4CCOCC4)nc4c3CCC4)cc2)CCC1 [Example 4, 1-[4-(2-morpholin-4-yl-6,7-dihydro-5H-cyclopentapyrimidin-4-ylamino)-phenyl]-cyclobutanecarboxylic acid] | 279 to 281 | 2.45 | 3.45
CC(C)(C)Nc1nc(Nc2ccc(C3(C(=O)O)CCCC3)cc2)nc2c1CCC2 [Example 10, 1-[4-(4-tert-butylamino-6,7-dihydro-5H-cyclopentapyrimidin-2-ylamino)-phenyl]-cyclopentanecarboxylic acid] |  | 2.07 | 2.43
O=C(O)C1(c2ccc(Nc3nc(NC4CCCC4)nc4c3CCC4)cc2)CCC1 [Example 13, 1-[4-(2-cyclopentylamino-6,7-dihydro-5H-cyclopentapyrimidin-4-ylamino)-phenyl]-cyclobutanecarboxylic acid] |  | 1.94 | 1.67
O=C(O)C1(c2ccc(Nc3nc(N4CCC(O)CC4)nc4c3CCC4)cc2)CCC1 [Example 5, 1-{4-[2-(4-hydroxy-piperidin-1-yl)-6,7-dihydro-5H-cyclopentapyrimidin-4-ylamino]-phenyl}-cyclobutanecarboxylic acid] | 165 to 167 |  | 
Cn1cc(-c2nc3c(c(Nc4ccc(C5(C(=O)O)CCC5)cc4)n2)CCC3)cn1 [Example 7, 1-{4-[2-(1-methyl-1H-pyrazol-4-yl)-6,7-dihydro-5H-cyclopentapyrimidin-4-ylamino]-phenyl}-cyclobutanecarboxylic acid] |  | 1.79 | 2.09
O=C(O)C1(c2ccc(Nc3nc(Nc4cccc(F)c4)nc4c3CCC4)cc2)CCC1 [Example 12, 1-{4-[2-(3-fluoro-phenylamino)-6,7-dihydro-5H-cyclopentapyrimidin-4-ylamino]-phenyl}-cyclobutanecarboxylic acid] |  | 3.22 | 3.38
